Experimental data reported in article PMC4815073, “Targeting of tubulin polymerization and induction of mitotic blockage by Methyl 2-(5-fluoro-2-hydroxyphenyl)-1H-benzo[d]imidazole-5-carboxylate (MBIC) in human cervical cancer HeLa cell” (Journal of Experimental & Clinical Cancer Research : CR, 2016).

Key:
HepG-2 cells = experiment: MTT cytotoxicity assay, HepG-2; format: cell-based, human; conditions: for IC50: MTT
Excerpt: (§1) The human cervical cancer cell-line, HeLa (CCL-2.2; ATCC, Manassas, VA), HCT-116 (CCL-247; ATCC, Manassas, VA), A549 (CCL-185; ATCC, Manassas, VA), HepG-2 (HB-8065; ATCC, Manassas, VA) and WRL-68 (CL-48; ATCC, Manassas, VA), were obtained from American Type Culture Collection (ATCC). HeLa, A549, HepG2 and WRL68 cells were maintained in Dulbecco’s Modified Eagle Medium (DMEM, Life Technologies, Inc, Rockville, MD). HCT-116 was obtained in McCoy’s 5a Medium Modified (Life Technologies, Inc, Rockville, MD) supplemented with 10 % fetal bovine serum and 1 % penicillin/streptomycin. Cells were incubated at 37 °C in a humidified cell culture 5 % CO2 incubator. Cells were passaged until reaching 70-80-% confluency for experimental purposes.
(§2) Cytotoxicity of MBIC was estimated by MTT assay. Briefly, 1 × 10^4 cells/well were seeded in a 96-well plate and incubated at 37 °C in 5 % CO2. After 24 h, cells were treated with different concentrations (0.02, 0.04, 0.1, 0.2, 0.4, 0.8, 1.5, 3, 6, 12, 25, 50 μM) of MBIC. 0.01 % DMSO was used as vehicle control. Cells were incubated for 24 and 48 h at 37 °C. Subsequently, 50 μl/well of 3-(4,5-dimethylthiazol-2-yl)-2,5-diphenyltetrazolium bromide (MTT, 2 mg/ml) was added and incubated for 2 h. After the incubation, the media was discarded and 100 μl DMSO was replaced into each well to dissolve the formazan crystal. The colorimetric assay was quantified at 570 nm wavelength using Chameleon V microplate reader (Hidex, Turku, Finland). The anti-proliferation activity of MBIC was expressed as an IC50 value. The percentage of cell viability was calculated as described previously.

HCT-116 cells = experiment: MTT cytotoxicity assay, HCT-116; format: cell-based, human; conditions: for IC50: MTT
Excerpt: as §1, §2

A549 cells = experiment: MTT cytotoxicity assay, A549; format: cell-based, human; conditions: for IC50: MTT
Excerpt: as §1, §2

HeLa cells [1] = experiment: MTT cytotoxicity assay, HeLa; format: cell-based, human; conditions: for IC50: HeLa, MTT; for SI (Selectivity Index): IC50 WRL-68 / IC50 HeLa
Excerpt: as §1, §2

WRL-68 cells = experiment: MTT cytotoxicity assay, WRL-68 normal liver cells; format: cell-based, human
Excerpt: as §1, §2

HeLa cells [2] = experiment: Drug combination assay (MTT, Chou-Talalay, CampuSyn); format: cell-based; conditions: Homo sapiens, 24 h, drug alone, read-out: (Dm)IC50 Drug 1 (conventional drug alone)
Experimental: In order to discover the synergistic effects of MBIC with conventional drugs briefly, cells were seeded in 1 × 10^4 cells/well and were incubated at 37 °C overnight. […] Also, the MBIC, combined with each of the selected conventional drugs in a 1:1 ratio, were diluted in concentration from 50 μM to 0.1 μM. Cell viability assay (MTT assay) was performed 24 h post-treatment and absorbance were measured in a microplate reader to find out the IC50 for each conventional drug alone and in combination with MBIC on HeLa cells. For this analysis, we used the commercial software package CampuSyn (Biosoft, Cambridge, United Kingdom; Ref.9). […] Furthermore, the software produced an automated isobologram and fraction affected-combination index (Fa-CI) plot.

tubulin = molecular target: T1, tubulin (Sus scrofa, UniProt P02550+P02554); experiment: Tubulin polymerization assay; format: biochemical; conditions: 10 μM drug, 3 mg/ml tubulin, 37 °C, 340 nm; untreated 12 mOD/min
T1 construct: purchased Cytoskeleton BK011P
Experimental: To investigate the effect of MBIC on tubulin polymerization, a fluorescence-based tubulin polymerization assay kit (Cytoskeleton-Cat. # BK011P) was used according to the manufacturer’s protocol. Briefly, 200 μl of pure tubulin protein was re-suspended in 420 μl of ice cold Tubulin Polymerization Buffer (TPB) to give a final concentration of 3 mg/ml tubulin, supplemented with 80 mM PIPES, 2 mM MgCl2, 0.5 mM EGTA, 1 mM GTP, 20 % (v/v) glycerol. 100 μl of tubulin reaction mixture were added to each well in a 96-well plate containing the selected concentration of MBIC (10 μM). […] Samples were mixed well and the tubulin assembly was monitored by an increase in fluorescence emission at 340 nm in kinetic mode for 120 min at 37 °C using a plate reader (Infinite® 200 PRO—Tecan plate reader, USA).

[3] = test system: HeLa cells expressing EGFP-α-tubulin, EGFP-CENP-A and histone H2B-mCherry; experiment: Live-cell imaging of mitotic spindle; format: cell-based, human; conditions: MBIC 10 μM, nocodazole 2 μM; imaged at 15 min intervals
Experimental: HeLa cells expressing EGFP-α-tubulin, EGFP-CENP-A and histone H2B-mCherry were grown in glass chambers (Thermo Scientific, USA). Thirty minutes before imaging, the medium was changed to pre-warmed Leibovitz’s L-15 medium (Life Technologies) supplemented with 20 % fetal bovine serum and 20 mM HEPES, pH 7.0. Recordings were made in a temperature-controlled incubator at 37 °C. Images were collected with an Olympus IX-71 inverted microscope (Olympus) controlled by DeltaVision softWoRx (Applied Precision) using a 20x 0.75 NA UPlan SApochromat objective lens (Olympus). Z-series of six sections in 3 μm increments were captured every 15 min. Image stacks were projected.

[4] = IC50 WRL-68 / IC50 HepG-2, 24 hours
[5] = IC50 WRL-68 / IC50 HepG-2, 48 hours
[6] = IC50 WRL-68 / IC50 HCT-116, 24 hours
[7] = IC50 WRL-68 / IC50 HCT-116, 48 hours
[8] = IC50 WRL-68 / IC50 A549, 24 hours
[9] = IC50 WRL-68 / IC50 A549, 48 hours
[10] = Homo sapiens, HepG2, HepG-2, 24 hours
[11] = Homo sapiens, HepG2, HepG-2, 48 hours
[12] = Homo sapiens, HCT-116, 24 hours
[13] = Homo sapiens, HCT-116, 48 hours

T1 sequence (P02550 whole entry): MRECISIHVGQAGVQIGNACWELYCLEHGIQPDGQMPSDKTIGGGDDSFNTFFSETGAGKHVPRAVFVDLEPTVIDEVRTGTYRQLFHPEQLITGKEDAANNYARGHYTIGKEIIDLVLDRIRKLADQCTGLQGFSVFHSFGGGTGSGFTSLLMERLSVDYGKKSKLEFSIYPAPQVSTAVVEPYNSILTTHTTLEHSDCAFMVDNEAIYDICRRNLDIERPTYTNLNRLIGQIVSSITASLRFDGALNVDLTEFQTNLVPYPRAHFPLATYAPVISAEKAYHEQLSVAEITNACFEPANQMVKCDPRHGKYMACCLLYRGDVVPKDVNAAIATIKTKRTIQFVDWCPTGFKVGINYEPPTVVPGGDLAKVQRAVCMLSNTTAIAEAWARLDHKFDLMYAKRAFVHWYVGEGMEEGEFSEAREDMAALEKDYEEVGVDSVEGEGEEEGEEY
T1 sequence (P02554 whole entry): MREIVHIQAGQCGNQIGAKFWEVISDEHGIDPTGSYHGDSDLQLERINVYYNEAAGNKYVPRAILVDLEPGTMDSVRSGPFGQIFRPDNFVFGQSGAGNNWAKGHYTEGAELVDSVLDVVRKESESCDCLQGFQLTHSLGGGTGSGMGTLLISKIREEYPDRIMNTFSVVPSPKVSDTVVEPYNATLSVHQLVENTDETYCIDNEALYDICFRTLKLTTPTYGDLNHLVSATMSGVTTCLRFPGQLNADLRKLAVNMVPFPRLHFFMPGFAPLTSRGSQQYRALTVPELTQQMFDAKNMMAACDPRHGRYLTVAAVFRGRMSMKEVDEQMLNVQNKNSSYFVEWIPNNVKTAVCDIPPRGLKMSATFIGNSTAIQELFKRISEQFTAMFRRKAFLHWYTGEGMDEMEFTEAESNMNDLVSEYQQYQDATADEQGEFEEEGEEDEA

Row | SMILES | SI (Selectivity Index) (HepG-2 cells; [4]) | SI (Selectivity Index) (HepG-2 cells; [5]) | SI (Selectivity Index) (HCT-116 cells; [6]) | SI (Selectivity Index) (HCT-116 cells; [7]) | SI (Selectivity Index) (A549 cells; [8]) | SI (Selectivity Index) (A549 cells; [9]) | SI (Selectivity Index) (HeLa cells [1]; 24 hours) | SI (Selectivity Index) (HeLa cells [1]; 48 hours) | IC50 (HepG-2 cells; [10]) [µM] | IC50 (HepG-2 cells; [11]) [µM] | IC50 (HCT-116 cells; [12]) [µM] | IC50 (HCT-116 cells; [13]) [µM] | IC50 (A549 cells; Homo sapiens, A549, 24 hours) [µM] | IC50 (A549 cells; Homo sapiens, A549, 48 hours) [µM] | IC50 (HeLa cells [2]) [µM] | IC50 (HeLa cells [1]; Homo sapiens, 24 hours) [µM] | IC50 (HeLa cells [1]; Homo sapiens, 48 hours) [µM] | IC50 (WRL-68 cells; Homo sapiens, WRL68, 24 hours) [µM] | IC50 (WRL-68 cells; Homo sapiens, WRL68, 48 hours) [µM] | Tubulin polymerization maximal velocity (Vmax) (tubulin) [mOD/min] | other results
1 | N.N.[Cl][Pt][Cl] [Cisplatin] | 1.80 | 1.78 | 2.57 | 2.56 | 0.54 | 0.54 | 1.23 | 1.17 | – | – | – | – | – | – | – | – | – | – | – | – | IC50 (HepG-2 cells; HepG-2, 24 hours): 10.3 ± 0.5 µM; IC50 (HepG-2 cells; HepG-2, 48 hours): 5.93 ± 0.2 µM; IC50 (HCT-116 cells; HCT-116, 24 hours): 7.22 ± 0.5 µM; IC50 (HCT-116 cells; HCT-116, 48 hours): 4.12 ± 0.6 µM; IC50 (A549 cells; A549, 24 hours): 34 ± 0.9 µM; IC50 (A549 cells; A549, 48 hours): 19.5 ± 1.4 µM; IC50 (HeLa cells [1]; 24 hours): 15.07 ± 0.03 µM; IC50 (HeLa cells [1]; 48 hours): 9.02 ± 0.02 µM; IC50 (WRL-68 cells; 24 hours): 18.6 ± 1.4 µM; IC50 (WRL-68 cells; 48 hours): 10.6 ± 0.7 µM
2 | COc1cccc2c1C(=O)c1c(O)c3c(c(O)c1C2=O)C[C@@](O)(C(=O)CO)C[C@@H]3O[C@H]1C[C@H](N)[C@H](O)[C@H](C)O1 [Doxorubicin] | 0.44 | 0.42 | 3.91 | 3.57 | 10.17 | 18.66 | 7.73 | 5.79 | 8.04 ± 0.8 | 3.94 ± 0.07 | 0.91 ± 0.2 | 0.47 ± 0.3 | 0.35 ± 0.07 | 0.09 ± 0.01 | 0.46 ± 0.7 | 0.46 ± 0.04 | 0.29 ± 0.04 | 3.56 ± 0.9 | 1.68 ± 0.09 | – | –
3 | COC(=O)Nc1nc2ccc(C(=O)c3cccs3)cc2[nH]1 [Nocodazole] | 1.14 | 1.48 | 3.20 | 4.17 | 1.00 | 1.48 | 3.97 | 3.40 | 10.7 ± 0.5 | 5.08 ± 0.3 | 3.81 ± 0.6 | 1.81 ± 0.3 | 12.2 ± 0.2 | 5.09 ± 0.5 | 3.08 ± 0.5 | 3.08 ± 0.02 | 2.22 ± 0.04 | 12.2 ± 0.9 | 7.56 ± 0.3 | 3 | mitotic spindle formation in live-cell imaging [3]: did not form the spindle
4 | CC(=O)O[C@H]1C(=O)[C@@]2(C)[C@H]([C@H](OC(=O)c3ccccc3)[C@]3(O)C[C@H](OC(=O)[C@H](O)[C@@H](NC(=O)c4ccccc4)c4ccccc4)C(C)=C1C3(C)C)[C@]1(OC(C)=O)CO[C@@H]1C[C@@H]2O [Paclitaxel] | 2.38 | 3.31 | 2.17 | 3.12 | 2.37 | 2.77 | 6.57 | 5.98 | 2.81 ± 0.72 | 1.03 ± 0.07 | 3.09 ± 0.5 | 1.09 ± 0.4 | 2.83 ± 0.11 | 1.23 ± 0.09 | 1.02 ± 0.6 | 1.02 ± 0.01 | 0.57 ± 0.03 | 6.71 ± 0.2 | 3.41 ± 0.8 | 33 | –
